Results on one molecule are retold here after patent publication US6761123B2, “INFUSION OF COMBUSTION GASES INTO BALLAST WATER PREFERABLY UNDER LESS THAN ATMOSPHERIC PRESSURE TO SYNERGISTICALLY KILL HARMFUL AQUATIC NUISANCE SPECIES BY SIMULTANEOUS HYPERCAPNIA, HYPOXIA AND ACIDIC PH LEVEL” (MH Systems, priority 2001, dated 2004).

Series [1] has as its system brittle stars. The series is described as follows: Incubation of brittle stars in gas-equilibrated seawater, survival by motile response. The note with it: transfer to aerobic conditions. It counts as in vivo. The source says:
(§1) The purpose of the experiments described here was to obtain data on the effects of “inert gas” on marine organisms. “Inert gas” of a mixture hereinafter called trimix—a commercially available gas mixture of […], 12% CO2 and 84% nitrogen resembling the gas generated by commercially used marine “inert gas generators”—was used. Both adult and young adult marine organisms were chosen for two reasons: a) to make the size of specimens amenable for the experimental setup and b) to raise the significance of possible effects since adults of a species are typically more tolerant of environmental changes than juveniles or larvae. All marine organisms were collected fresh from the coastal waters off La Jolla, Calif. and used immediately. They are, in that particular environment, not necessarily nuisance organisms. Some of the organisms might be so considered, however, should they be introduced into other waters. […]
(§2) The schematic of an experimental setup in validation of the principles and methods of the present invention (and also, a miniature scale, the gaseous exchange system) is shown in FIG. 1. […] The oxygen concentrations were measured after the initial bubbling period using a Strathkelvin oxygen electrode with a Cameron instruments OM-200 oxygen analyzer. Values of pH were determined using a combination electrode and a Radiometer pH meter. […]

Series [2] concerns mussels. The series is described as follows: Incubation of mussels in gas-equilibrated seawater, survival by shell closing on tactile stimulus. It counts as in vivo. As to conditions: after 95 min incubation.
From the text: as §1, §2

The nature of series [3]: Oxygen concentration and pH of seawater bubbled with the gas. It counts as physicochemical. The method, then:
The schematic of an experimental setup in validation of the principles and methods of the present invention (and also, a miniature scale, the gaseous exchange system) is shown in FIG. 1. Three parallel incubations were done for each experiment. Several organisms were incubated in 1.5 l of seawater at 22° C. in large Erlenmeyer flasks. Each incubation was equilibrated with the respective gas using aquarium stones before any organisms were introduced. The aerobic control was bubbled from an aquarium pump for approximately 15 min and left open to the atmosphere after addition of specimens. An anaerobic incubation was bubbled with 99.998% nitrogen for 15 min. After introduction of the organisms, the bubbling was continued for another 10 min and then the container was closed with a rubber stopper or the bubbling was continued. The incubation in […] treated similarly except that the gas mix was used instead of nitrogen. The oxygen concentrations were measured after the initial bubbling period using a Strathkelvin oxygen electrode with a Cameron instruments OM-200 oxygen analyzer. Values of pH were determined using a combination electrode and a Radiometer pH meter.

The subject of series [4] is plankton sample (mainly copepods). The series can be described thus: Incubation of plankton sample (mainly copepods) in gas-equilibrated seawater. It counts as in vivo.
From the text: as §1, §2

Series [5] has as its system barnacles. The series can be described thus: Incubation of barnacles in gas-equilibrated seawater, survival by withdrawal of feet when disturbed. The note with it: 1.5 l seawater, 22° C., equilibrated with gas. It counts as in vivo.
From the text: as §1, §2

Consider `N#N` [nitrogen], for which the “movement of brittle stars after transfer into aerated water” value in series [1] is reported as “started to move again”. Besides, in series [2], the “response of mussels to tactile stimuli (closing shells)” value was “still responded to tactile stimuli by closing their shells” and the “state of mussel shells” value is recorded as “open”. Besides, the “oxygen concentration of the incubation” value in series [3] (measured after the initial bubbling period, oxygen electrode) is “non-detectable”. Also, in series [3] (seawater, normal pH 8, trimix value after initial 10 min of vigorous bubbling), the “pH value of the seawater bubbled with the gas” value came out at 8. Besides, in series [4] (1.5 l seawater, 22° C., equilibrated with gas), the “time after which plankton (mainly copepods) stopped moving” value was 15 min. Further, the “revival of plankton (mainly copepods)” value in series [4] (after they stopped moving) is reported as “could not be revived”. The “state of barnacles after incubation (withdrawal of feet when disturbed)” value in series [5] is given as “still behaved normally”.
